{"source": "ChEMBL document CHEMBL4387754", "about": "“Chemical modification-mediated optimisation of bronchodilatory activity of mepenzolate, a muscarinic receptor antagonist with anti-inflammatory activity” (Bioorg Med Chem, 2019)", "key": {"[1]": {"assay": "Plasma concentration in ICR mouse at 7.5 mg/kg, iv measured after 1 min by RP-HPLC analysis", "type": "ADME, organism-based"}, "[2]": {"assay": "Plasma concentration in ICR mouse at 10 mg/kg administered intratracheally measured after 1 min by RP-HPLC analysis", "type": "ADME, organism-based", "settings": "inhaled or intranasal"}}}
{"smiles": "C[N+]1(C)[C@@H]2C[C@@H](OC(=O)C(O)(c3cccs3)c3cccs3)C[C@H]1[C@@H]1O[C@@H]12.[Br-]", "values": [{"measurement": "concentration at 1 min", "setting": "[1]", "result": 40000, "unit": "ng/mL"}, {"measurement": "concentration at 1 min", "setting": "[2]", "result": 3000, "unit": "ng/mL"}]}
